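Cultured in 96-well plates, cells were exposed to test compound for 48 hours across five concentrations. The concentration for full growth arrest is given as TGI.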
Legend:
Assay in all cases: growth of human tumour cells (NCI), 48 h
[1] = system: A498 renal
[2] = system: SF-539 CNS
[3] = system: SF-268 CNS
[4] = system: HCC-2998 colon
[5] = system: HS 578T breast
[6] = system: T-47D breast
[7] = system: UACC-257 melanoma
[8] = system: ACHN renal
[9] = system: LOX IMVI melanoma
[10] = system: 786-0 renal
[11] = system: TK-10 renal
[12] = system: SK-MEL-2 melanoma
[13] = system: HL-60(TB) leukemia
[14] = system: PC-3 prostate
[15] = system: K-562 leukemia
[16] = system: SF-295 CNS
[17] = system: SR leukemia
[18] = system: UO-31 renal
[19] = system: SW-620 colon
[20] = system: CCRF-CEM leukemia

Row | Compound | TGI [1] [µM] | TGI [2] [µM] | TGI [3] [µM] | TGI [4] [µM] | TGI [5] [µM] | TGI [6] [µM] | TGI [7] [µM] | TGI [8] [µM] | TGI [9] [µM] | TGI [10] [µM] | TGI [11] [µM] | TGI [12] [µM] | TGI [13] [µM] | TGI [14] [µM] | TGI [15] [µM] | TGI [16] [µM] | TGI [17] [µM] | TGI [18] [µM] | TGI [19] [µM] | TGI [20] [µM]
1 | O=C1c2ccccc2S(=O)(=O)c2c1cccc2[N+](=O)[O-] | > 8.45 | 4.34 | > 9.38 | > 10 | > 10 | 5.9 | 4.76 | 8.04 | 5.21 | 3.13 | > 10 | > 10 | 4.97 | > 9.02 | > 10 | > 10 | 5.28 | 3.92 | 3.47 | 4.19
2 | O=[N+]([O-])c1ccc(-c2nnc(C34CC5CC(CC(C5)C3)C4)o2)cc1 | > 100 | > 100 | > 100 | > 100 | > 100 | > 100 |  | > 100 | > 100 | > 100 | > 100 | > 100 | > 100 | > 100 | > 100 | > 100 | > 100 | > 100 | > 100 | > 100
3 | O=Nc1c(O)cc(Nc2ccc(Br)cc2)c2ccccc12 | 22.2 | > 100 | > 55.6 | 19.4 | > 28.4 | > 73.8 | 3.33 | 25.1 | > 31.2 | 27.3 | 27.7 | 3.64 | 55.9 | > 100 | > 75 | 2.98 | 72.4 | 23 | 35 | > 100
4 | NC(=O)N=C(N(Cc1ccccc1)Cc1ccccc1)N(Cc1ccccc1)Cc1ccccc1 | > 100 | > 100 | > 100 | > 100 | > 100 | > 100 | > 100 | > 100 | > 100 | > 100 | > 100 | > 100 |  | > 100 | > 100 | 35.1 | > 100 | > 100 | > 100 | > 100
5 | S=c1sc2c(s1)SCCCCSCCCCSc1sc(=S)sc1SCCCCSCCCCS2 | > 100 | > 100 | > 100 | > 100 | > 100 | > 100 | > 100 | > 100 | > 100 | > 100 | > 100 | > 100 | > 100 | > 100 | > 100 | > 100 | > 100 | > 100 | > 100 | > 100
6 | CCN(CC)CCC(=O)c1ccc(Oc2ccc(Cl)cc2)cc1 | 31.7 | 42.1 | 34.5 | 34.2 | 59 | 44.3 | 28.6 | 25.8 | 28.8 | 28.3 | 33.1 | 32 | 59.8 | 28.3 | > 100 | 32.4 | 48.7 | 32.4 | 44.4 | 58.1
7 | CCOC(CN=C=S)OCC | > 10 | > 10 | > 10 | > 10 | > 10 | > 10 | > 10 | > 10 | > 10 | > 10 | > 10 | > 10 | > 10 | > 10 | > 10 | > 10 | > 10 | > 10 | > 10 | > 10
8 | O=CC(=C(I)I)c1ccccc1 | 40.7 | 5.17 | 9.97 | 26.4 | 12.6 | 9.18 | 8.05 | 8.8 | 4.06 | 5.78 | 5.83 | 23.2 | 0.275 | 13.7 | 1.34 | 31.2 | 1.25 | 7.63 | 2.17 | 0.65
9 | CSc1ncc2c(C#N)c3sc4ccccc4n3c(=O)c2n1 | > 100 | > 100 | 52.9 | > 100 | 51.3 | > 100 | > 100 | > 100 | > 100 | > 100 | > 100 | > 100 | > 100 | > 100 | > 100 | > 100 | > 100 | > 100 | > 100 | > 100
10 | CS(=O)(=O)N1CC(CCl)c2ccc([N+](=O)[O-])cc21 (stereo not given) | > 100 | > 100 | > 100 | > 100 | > 100 | > 100 | > 100 | > 100 | > 100 | > 100 | > 100 | > 100 | > 100 | > 100 | > 100 | > 100 | > 100 | > 100 | > 100 | > 100
11 | O=c1c2nn3c(=O)n(-c4ccccc4)c(=O)c3nn2c(=O)n1-c1ccccc1 | > 100 | > 100 | > 100 | > 100 | > 100 | > 100 | > 100 | > 100 | > 100 | > 100 | > 100 | > 100 | > 100 | > 100 | > 100 | > 100 | > 100 | > 100 | > 100 | > 100
12 | c1ccc([P+](Cc2ccc(C[P+](c3ccccc3)(c3ccccc3)c3ccccc3)cc2)(c2ccccc2)c2ccccc2)cc1 | > 100 | > 100 | > 100 | > 100 | > 100 | > 100 | > 100 | > 100 | 50 | > 100 | > 100 |  | > 100 | > 100 | 29.8 | > 100 | > 100 | > 100 | > 100 | > 100
13 | C=CCOc1ccc(/C(N=Nc2ccc([N+](=O)[O-])cc2)=N/NC(=O)c2ccccc2)cc1OC | > 100 | > 100 | > 100 | > 100 | > 100 | > 100 | > 100 | > 100 | > 100 | > 100 | > 100 | > 100 | > 100 | > 100 |  | > 100 | > 100 | > 100 | > 100 | > 100
14 | COc1ccc2c(C)cc(N/N=C(\C)C=O)nc2c1 | 27.9 | 20.3 | 41.1 | 24.5 | 43.3 | 41.3 | 33.9 | 29.7 | 24 | 28.6 | 30.1 | 33.1 |  | 24.2 | 5.05 | 28.8 | 3.79 | 26.4 | 27.5 | 4
15 | CC(=O)N1C(=O)/C(=C\C(=O)c2ccc([N+](=O)[O-])cc2)c2ccccc21 | > 100 | 49.8 | 49.2 | 36.7 | 54.2 | 61.9 | 40.9 | 29.6 |  | 29.1 | 26.3 | > 100 |  | 58.4 | 36.5 | > 100 | 20.3 | 63 |  | 16.9
16 | CCOC(=O)c1c(N)sc2c1C(C(=O)OCC)CC2 (stereo not given) | 82.1 |  |  | > 100 | > 100 | > 100 | > 100 | > 100 |  | > 100 | > 100 | > 100 | > 100 | > 100 | > 100 |  | > 100 | > 100 | > 100 | 
17 | COc1ccc2oc(=N)c(C(=O)NCc3ccccc3)cc2c1 | 35.1 | 56.6 | 52.5 |  | 42.7 | 44.6 | > 100 | 73.9 | > 100 | > 100 | > 100 | 43.5 | > 100 | > 100 | 86.8 | 65 | > 100 | > 100 | 55.6 | > 100
18 | CCC1NC(=O)C1NC(=O)OC (stereo not given) | > 100 | > 100 |  | > 100 | > 100 | > 100 | > 100 | > 100 | > 100 | > 100 | > 100 | > 100 | > 100 | > 100 | > 100 | > 100 | > 100 | > 100 | > 100 | > 100
19 | CC(=O)OCC1OC(SC2=N/C(=C\c3cc4c(=O)c5ccccc5sc4s3)C(=O)N2c2ccccc2)C(OC(C)=O)C(OC(C)=O)C1OC(C)=O (stereo not given) | > 100 |  | > 100 | > 100 | > 100 | > 100 | > 100 | > 100 | > 100 | > 100 | > 100 | > 100 | 53.3 | > 100 | > 100 | > 100 | > 100 | > 100 | > 100 | 
20 | CCCC1(NC(=O)C(F)(F)F)CC(OC)OC2COC(c3ccccc3)OC21 (stereo not given) | > 100 | > 100 | > 100 | > 100 | > 100 | > 100 | > 100 | > 100 | > 100 | > 100 |  | > 100 | 95.3 | > 100 | > 100 | > 100 | > 100 | > 100 | > 100 | > 100
21 | N=c1oc2c(Cl)cc(Cl)cc2cc1C(=O)Nc1cccc2ccccc12 | 23.7 |  | > 100 | > 59.6 | > 53.2 | 25.2 | > 100 | 11.2 | > 24 | 12.8 | 4.71 |  | > 100 | > 100 | > 53.3 | 96.9 | > 21.1 | > 40.9 | 27.1 | 14.4
22 | NC(=O)c1cc2cc(Cl)cc(Cl)c2oc1=Nc1ccc(F)cc1 | 35.3 |  | > 100 | 48.9 | > 100 | 73.5 | 42.8 | 41.8 | > 100 | 25.3 | 30 | 31.6 | > 100 | 44.3 | 27.5 | 39.3 | 24.8 | > 100 | > 100 | > 100
23 | C/C(=N/NC(=S)Nc1ccc([N+](=O)[O-])cc1)c1cccc(/C(C)=N\NC(=S)Nc2ccc([N+](=O)[O-])cc2)n1 | 9.74 | 2.28 | > 100 | 21.5 | > 81.7 | 24.2 | 13.1 | 1.14 | 12.7 | 11.6 | 15.7 | 23.6 |  | 18.7 | > 39.4 | 8.33 | 2.33 | 4.97 | 16.1 | > 55.8
24 | C=CCOc1ccc(/C(N=Nc2ccc(Cl)cc2)=N/NC(=O)c2ccccc2)cc1OC | > 100 |  | > 100 | > 100 | > 100 | 61.6 | > 100 | > 100 | > 100 | > 100 | > 100 | > 100 | > 100 | > 100 |  | > 100 | > 100 | > 100 | > 100 | 86.9
25 | NC(=O)NNc1nc2ccccc2c(=O)n1NC(=O)C(=O)Nc1ccc(Cl)cc1Cl | > 100 | > 100 | > 100 | > 100 | > 100 | > 100 | > 100 | > 100 | > 100 | > 100 | > 100 | > 100 |  | > 100 | > 100 | > 100 | > 100 | > 100 | > 100 | > 100
